Here are results for one compound from patent US20050004138A1 (Pfizer Inc, priority 2003, published 2005).

The test system of one data set is Social Phobia. As to the kind of experiment: Treatment of subjects diagnosed with Social Phobia. Type of data set: in vivo, human. Particulars: subjects aged 18 to 55 years with Social Phobia; about 40 to about 200 mg/day.
In the next data set the test system is Specific Phobia. In words: Treatment of subjects diagnosed with Specific Phobia. Type of data set: in vivo, human. The conditions noted are these: subjects aged 18 to 55 years with Specific Phobia; about 40 to about 200 mg/day.

Each structure is given as a SMILES string.

Take `O=C1Cc2cc(CCN3CCN(c4nsc5ccccc45)CC3)c(Cl)cc2N1` [Ziprasidone, 5-(2-(4-(1,2-benzisothiazol-3-yl)piperazinyl)ethyl)chlorooxindole]: the “tolerability / side effects” value in the data set with Social Phobia and with Specific Phobia was “well tolerated” in each case.
